ChEMBL document CHEMBL1201862, “PubChem BioAssay data set” (2004)
Where a name gives a salt, the structure may show the parent alone.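 Results reflect a 48-hour exposure of cells in 96-well plates to compound at five concentrations. At the GI50, growth is halved.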 The source made the active and inactive calls. Cut-off read from the data, not from the text of the source: active = GI50 up to about 1.1 µM and inactive = higher.

What was measured:
Assay in all cases: NCI-60 cell line screen, 48 h
[1] = test system: UO-31
[2] = test system: NCI-H522
[3] = test system: SF-539
[4] = test system: UACC-257
[5] = test system: RXF 393
[6] = test system: K562
[7] = test system: SF-268
[8] = test system: ACHN
[9] = test system: SN12C
[10] = test system: CCRF-CEM
[11] = test system: HOP-62
[12] = test system: MOLT-4
[13] = test system: SK-MEL-5
[14] = test system: OVCAR-3
[15] = test system: KM12
[16] = test system: NCI-H23
[17] = test system: COLO 205
[18] = test system: UACC-62
[19] = test system: HL-60

With `Nc1nc(Cl)c(N)c(NCC2(CO)CC(Cc3ccccc3)C2)n1` (stereo not drawn) the GI50 [1] was > 100 µM (inactive), the GI50 [2] was 28.5 µM (inactive) and the GI50 [3] was > 100 µM (inactive). For the same compound, the GI50 [4] was 0.127 µM (active), the GI50 [5] was > 42.6 µM (inactive) and the GI50 [6] was 0.218 µM (active). For the same compound, the GI50 [7] was > 92.9 µM (inactive), the GI50 [8] was 97.9 µM (inactive) and the GI50 [9] was > 100 µM (inactive). For the same compound, the GI50 [10] was 23.1 µM (inactive), the GI50 [11] was > 49.3 µM (inactive) and the GI50 [12] was 16.3 µM (inactive). The GI50 [13] was 0.0766 µM (active), the GI50 [14] was 26.3 µM (inactive) and the GI50 [15] was 35.7 µM (inactive). The GI50 [16] was 0.865 µM (active), the GI50 [17] was 34.9 µM (inactive) and the GI50 [18] was > 76.9 µM (inactive). The GI50 [19] was 4.8 µM (inactive).

In the case of `C/C(=N\Nc1nc2ccccc2s1)c1cnccn1`, the GI50 [1] is reported as 1.06 µM (active), the GI50 [2] is reported as 0.265 µM (active) and the GI50 [3] is reported as 5.24 µM (inactive). For the same compound, the GI50 [4] was 4.13 µM (inactive), the GI50 [5] was 12.7 µM (inactive) and the GI50 [6] was 1.67 µM (inactive). The GI50 [7] was 1.16 µM (inactive), the GI50 [8] was 0.397 µM (active) and the GI50 [9] was 1.08 µM (active). The GI50 [10] was 0.318 µM (active), the GI50 [11] was 2.75 µM (inactive) and the GI50 [12] was 0.461 µM (active). The GI50 [13] was 2.57 µM (inactive), the GI50 [14] was 0.49 µM (active) and the GI50 [15] was 2.07 µM (inactive). The GI50 [16] was 1.94 µM (inactive), the GI50 [17] was 0.344 µM (active) and the GI50 [18] was 3.88 µM (inactive).

`COc1ccc2cc1Oc1ccc(cc1)CC1c3cc4c(cc3CCN1C)Oc1c(OC)cc3c(c1O4)C(C2)N(C)CC3` (stereo not drawn) was tested, and the GI50 [2] was 2.11 µM (inactive), the GI50 [3] was 2.13 µM (inactive) and the GI50 [5] was 1.64 µM (inactive). For the same compound, the GI50 [6] was 1.75 µM (inactive), the GI50 [7] was 2.77 µM (inactive) and the GI50 [8] was 4.78 µM (inactive). For the same compound, the GI50 [9] was 1.94 µM (inactive), the GI50 [10] was 1.32 µM (inactive) and the GI50 [11] was 12.6 µM (inactive). For the same compound, the GI50 [12] was 1.44 µM (inactive), the GI50 [13] was 8.57 µM (inactive) and the GI50 [14] was 5.81 µM (inactive). For the same compound, the GI50 [15] was 2.11 µM (inactive), the GI50 [16] was 4.26 µM (inactive) and the GI50 [17] was 1.43 µM (inactive). The GI50 [18] was 3.21 µM (inactive) and the GI50 [19] was 1.96 µM (inactive).

In the case of `CS(=O)(=O)c1c(N)c2nc(Cl)cn2c2nc3ccccc3nc12`, the GI50 [1] is reported as > 100 µM (inactive), the GI50 [2] is reported as 48 µM (inactive) and the GI50 [3] is reported as > 100 µM (inactive). The GI50 [4] was > 100 µM (inactive), the GI50 [6] was > 100 µM (inactive) and the GI50 [7] was > 100 µM (inactive). For the same compound, the GI50 [8] was > 100 µM (inactive), the GI50 [9] was > 100 µM (inactive) and the GI50 [10] was > 100 µM (inactive). The GI50 [11] was > 100 µM (inactive), the GI50 [12] was > 100 µM (inactive) and the GI50 [13] was > 100 µM (inactive). For the same compound, the GI50 [14] was > 100 µM (inactive), the GI50 [15] was > 100 µM (inactive) and the GI50 [16] was 68.9 µM (inactive). The GI50 [17] was > 100 µM (inactive) and the GI50 [18] was > 100 µM (inactive).

For `CCOC(=O)C(NC(=O)CC(C)C)(Nc1ccc(C(F)(F)F)cc1)C(F)(F)F` (stereo not drawn), the GI50 [1] was 61.7 µM (inactive), the GI50 [2] was 16.7 µM (inactive) and the GI50 [3] was > 100 µM (inactive). For the same compound, the GI50 [4] was 44.3 µM (inactive), the GI50 [5] was 35.4 µM (inactive) and the GI50 [6] was 23.9 µM (inactive). The GI50 [7] was > 100 µM (inactive), the GI50 [8] was 14.5 µM (inactive) and the GI50 [9] was > 100 µM (inactive). The GI50 [10] was 35.6 µM (inactive), the GI50 [11] was 36.1 µM (inactive) and the GI50 [12] was 23 µM (inactive). The GI50 [13] was 82.8 µM (inactive), the GI50 [14] was 13.4 µM (inactive) and the GI50 [15] was 14.7 µM (inactive). For the same compound, the GI50 [16] was 76.4 µM (inactive) and the GI50 [19] was 21 µM (inactive).

`C=CCC(OCCOCC)c1cc(OCCOCC)ccc1OC` (stereo not drawn) was tested, and the GI50 [1] was > 100 µM (inactive), the GI50 [2] was > 100 µM (inactive) and the GI50 [3] was > 100 µM (inactive). The GI50 [4] was > 100 µM (inactive), the GI50 [5] was > 100 µM (inactive) and the GI50 [6] was > 100 µM (inactive). For the same compound, the GI50 [7] was > 100 µM (inactive), the GI50 [8] was > 100 µM (inactive) and the GI50 [9] was > 100 µM (inactive). For the same compound, the GI50 [10] was > 100 µM (inactive), the GI50 [11] was > 100 µM (inactive) and the GI50 [12] was > 100 µM (inactive). For the same compound, the GI50 [13] was > 100 µM (inactive), the GI50 [14] was > 100 µM (inactive) and the GI50 [15] was > 100 µM (inactive). The GI50 [17] was > 100 µM (inactive), the GI50 [18] was > 100 µM (inactive) and the GI50 [19] was > 100 µM (inactive).

With `NCCS` [CYSTEAMINE HYDROCHLORIDE] the GI50 [1] was > 100 µM (inactive), the GI50 [2] was > 100 µM (inactive) and the GI50 [3] was 45.8 µM (inactive). For the same compound, the GI50 [4] was > 100 µM (inactive), the GI50 [6] was > 100 µM (inactive) and the GI50 [7] was > 100 µM (inactive). The GI50 [8] was > 100 µM (inactive), the GI50 [9] was > 100 µM (inactive) and the GI50 [10] was > 100 µM (inactive). The GI50 [11] was > 100 µM (inactive), the GI50 [12] was > 100 µM (inactive) and the GI50 [13] was > 100 µM (inactive). For the same compound, the GI50 [14] was > 100 µM (inactive), the GI50 [15] was > 100 µM (inactive) and the GI50 [16] was > 100 µM (inactive). The GI50 [17] was > 100 µM (inactive) and the GI50 [19] was > 100 µM (inactive).
